Experimental data from patent US9376442B2, “Methylpyrrolopyrimidinecarboxamides” (Takeda GmbH, priority 2009, dated 2016).

target: T1, PDE5A1 (Homo sapiens, UniProt O76074); test: Inhibition of type 5 phosphodiesterase (PDE5) activity, modified SPA test with human platelet lysate; format: biochemical; conditions: 0.5 μM cGMP, read-out: PDE5A1 inhibitory values [measured as −log IC50 (mol/l)] (converted)
T1 construct: from tissue; host or cells: human platelets from fresh donor blood (10,000 x g supernatant of sonicated lysate)
How it was run: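 Scintillation proximity assay with [3H]cGMP tracer at 0.5 μM total cGMP, stopped after 15 min with beads containing IBMX. PDE3 and PDE2 activities suppressed with motapizone (1 μM) and a PDE2 inhibitor (10 nM). Human platelet supernatant served as the enzyme, with compound preincubated 5 min at 37° C; IC50 values from concentration-effect curves.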

IC50, < 1 nM:
Cc1[nH]c2c(-c3c(OCC4CC4)ccc4c3OCO4)ncnc2c1C(=O)N[C@H]1CC[C@H](NC(=O)CO)CC1 [Example F3, 4-[5-(Cyclopropylmethoxy)-1,3-benzodioxol-4-yl]-N-[trans-4-(glycoloylamino)cyclohexyl]-6-methyl-5H-pyrrolo[3,2-d]pyrimidine-7-carboxamide]
Cc1[nH]c2c(-c3c(OCC4CC4)ccc4c3OCO4)ncnc2c1C(=O)N[C@H]1CC[C@H](NC(=O)[C@H](C)O)CC1 [Example F4, 4-[5-(cyclopropylmethoxy)-1,3-benzodioxol-4-yl]-N-(trans-4-{[(2S)-2-hydroxypropanoyl]amino}cyclohexyl)-6-methyl-5H-pyrrolo[3,2-d]pyrimidine-7-carboxamide]
Cc1[nH]c2c(-c3c(OCC4CC4)ccc4c3OCO4)ncnc2c1C(=O)N[C@H]1CC[C@@H](NC(=O)CO)CC1 [Example F5, 4-[5-(Cyclopropylmethoxy)-1,3-benzodioxol-4-yl]-N-[cis-4-(glycoloylamino)cyclohexyl]-6-methyl-5H-pyrrolo[3,2-d]pyrimidine-7-carboxamide]
Cc1[nH]c2c(-c3c(OCC4CC4)ccc4c3OCO4)ncnc2c1C(=O)N[C@H]1CC[C@@H](NC(=O)[C@H](C)O)CC1 [Example F6, 4-[5-(Cyclopropylmethoxy)-1,3-benzodioxol-4-yl]-N-(cis-4-{[(2S)-2-hydroxypropanoyl]amino}cyclohexyl)-6-methyl-5H-pyrrolo[3,2-d]pyrimidine-7-carboxamide]
Cc1[nH]c2c(-c3c(OCC4CC4)ccc4c3OCO4)ncnc2c1C(=O)N[C@@H]1CCN(C(=O)CO)C1 [Example F7, 4-[5-(Cyclopropylmethoxy)-1,3-benzodioxol-4-yl]-N-[(3R)-1-glycoloylpyrrolidin-3-yl]-6-methyl-5H-pyrrolo[3,2-d]pyrimidine-7-carboxamide]
Cc1[nH]c2c(-c3c(OCC4CC4)ccc4c3OCO4)ncnc2c1C(=O)N[C@@H]1CCN(C(=O)[C@H](C)O)C1 [Example F8, 4-[5-(Cyclopropylmethoxy)-1,3-benzodioxol-4-yl]-N-{(3R)-1-[(2S)-2-hydroxypropanoyl]pyrrolidin-3-yl}-6-methyl-5H-pyrrolo[3,2-d]pyrimidine-7-carboxamide]
Cc1[nH]c2c(-c3ccc(F)cc3OCC3CC3)ncnc2c1C(=O)NC1CCN(C(=O)CO)CC1 [Example F11, 4-[2-(Cyclopropylmethoxy)-4-fluorophenyl]-N-(1-glycoloylpiperidin-4-yl)-6-methyl-5H-pyrrolo[3,2-d]pyrimidine-7-carboxamide]
Cc1[nH]c2c(-c3ccc(F)cc3OCC3CC3)ncnc2c1C(=O)NC1CCN(C(=O)[C@H](C)O)CC1 [Example F12, 4-[2-(Cyclopropylmethoxy)-4-fluorophenyl]-N-{1-[(2S)-2-hydroxypropanoyl]piperidin-4-yl}-6-methyl-5H-pyrrolo[3,2-d]pyrimidine-7-carboxamide]
Cc1[nH]c2c(-c3ccc(F)cc3OCC3CC3)ncnc2c1C(=O)N[C@H]1CC[C@H](NC(=O)CO)CC1 [Example F13, 4-[2-(Cyclopropylmethoxy)-4-fluorophenyl]-N-[trans-4-(glycoloylamino)cyclohexyl]-6-methyl-5H-pyrrolo[3,2-d]pyrimidine-7-carboxamide]
Cc1[nH]c2c(-c3ccc(F)cc3OCC3CC3)ncnc2c1C(=O)N[C@H]1CC[C@H](NC(=O)[C@H](C)O)CC1 [Example F14, 4-[2-(Cyclopropylmethoxy)-4-fluorophenyl]-N-(trans-4-{[(2S)-2-hydroxypropanoyl]amino}cyclohexyl)-6-methyl-5H-pyrrolo[3,2-d]pyrimidine-7-carboxamide]
